Reference: US9561289B2, “Peptides for inhibiting tumor growth” (OSPEDALE SAN RAFFAELE SRL, priority 2012, dated 2017)
*1 amine or outer side, *2 acyl side, *3 side chain or, on linkers, in order; H or OH if unused. Where a SMILES comes first, the peptide text is derived from it. Bridges are numbered along the chain shown (N, C = ends). [ ]: non-standard residue; d: D form. The star is where a group is joined. X1 = NC(=O)C1CCC(CN2C(=O)CC(*)C2=O)CC1; X2 = O=C(O)C1CCC(CN2C(=O)CC(*)C2=O)CC1; βAsp = O=C(O)[C@H](CC(=O)[*:2])N[*:1]; dPhg = N[C@@H](C(=O)O)c1ccccc1; SMCC = sulfo-SMCC linker

B1: isoDGR#3-linker conjugate, peak P2 (peptide)
peptide: cyclo(C(SMCC)[βAsp]GRGG)
modifications: not fully specified
notes: said to be similar to isoDGR#1-linker (P2 carboxylic form); also called isoDGR#3-P2

Tests used:
αvβ3 = biological target: T1, αvβ3 (Homo sapiens, UniProt P05106+P06756); assay: Competitive integrin binding assay (isoDGR/STV-HRP) on αvβ3-coated plates; conditions: for ratio of integrin Ki/αvβ3 Ki (αvβ3): number in parenthesis
T1 construct: purchased Immunological Sciences (Rome, Italy)
Method: (§1) A conjugate consisting of biotinylated acetyl-Ciso[…] (SEQ ID NO:36) peptide complexed with streptavidin-peroxidase conjugate (isoDGR/STV-HRP) was first prepared as described previously. […] Each mixture was then added to microtiter plates coated with integrins (αvβ3, αvβ5, αvβ6, […], or α5β1) and incubated for 2 h at room temperature. After washing, each well was incubated with 70 μl of chromogenic solution (o-phenylenediamine dihydrochloride) for 20 min, at room temperature. The chromogenic reaction was stopped by adding an equal volume of 1 N sulfuric acid. The absorbance at 490 nm was then measured using a microtiter plate reader.
(§2) The binding affinity and selectivity of each peptide for different integrins were then analyzed by competitive binding assay, using αvβ3-, αvβ5-, αvβ6-, αvβ8- and α5β1-coated plates and isoDGR/STV-HRP, an ac-isoDGR-2C/peroxidase complex, as competitor.

αvβ5 = biological target: T2, αvβ5 (Homo sapiens, UniProt P06756+P18084); assay: Competitive integrin binding assay (isoDGR/STV-HRP) on αvβ5-coated plates; conditions: for ratio of integrin Ki/αvβ3 Ki (αvβ5): number in parenthesis
T2 construct: purchased Immunological Sciences (Rome, Italy)
Method: as §1, §2

αvβ6 = biological target: T3, αvβ6 (Homo sapiens, UniProt P06756+P18564); assay: Competitive integrin binding assay (isoDGR/STV-HRP) on αvβ6-coated plates; conditions: for ratio of integrin Ki/αvβ3 Ki (αvβ6): number in parenthesis; for Ki: mean ± SE
T3 construct: purchased R&D System (Minneapolis, Minn.)
Method: as §1, §2

αvβ8 = biological target: T4, αvβ8 (Homo sapiens, UniProt P06756+P26012); assay: Competitive integrin binding assay (isoDGR/STV-HRP) on αvβ8-coated plates; conditions: for ratio of integrin Ki/αvβ3 Ki (αvβ8): number in parenthesis
T4 construct: purchased R&D System (Minneapolis, Minn.)
Method: as §1, §2

α5β1 = biological target: T5, α5β1 (Homo sapiens, UniProt P05556+P08648); assay: Competitive integrin binding assay (isoDGR/STV-HRP) on α5β1-coated plates; conditions: for ratio of integrin Ki/αvβ3 Ki (α5β1): number in parenthesis
T5 construct: purchased Immunological Sciences (Rome, Italy)
Method: as §1, §2

Human integrin αvβ3 = biological target: T6, Human integrin αvβ3 (human, UniProt P06756 31-1048; P05106 27-788, limits assumed); assay: competitive binding assay, integrin-coated plate, probe isoDGR/STV-HRP
T6 construct: Bought from Immunological Sciences; coated on microtiter plates or spotted on nitrocellulose; also called avb3; purified αvβ3-integrin

| Molecule | ratio of integrin Ki/αvβ3 Ki (αvβ3) (αvβ3) | ratio of integrin Ki/αvβ3 Ki (αvβ5) (αvβ5) | ratio of integrin Ki/αvβ3 Ki (αvβ6) (αvβ6) | ratio of integrin Ki/αvβ3 Ki (αvβ8) (αvβ8) | ratio of integrin Ki/αvβ3 Ki (α5β1) (α5β1) | Ki (αvβ6) [nM] | Ki (αvβ8; mean ± SE) [nM] | Ki (αvβ3; mean ± SE) [nM] | Ki (αvβ5; mean ± SE) [nM] | Ki (α5β1; mean ± SE) [nM] | Ki (Human integrin αvβ3) [nM] |
| --- | --- | --- | --- | --- | --- | --- | --- | --- | --- | --- | --- |
| N=C(N)NCCC[C@@H]1NC(=O)CNC(=O)C[C@@H](C(=O)O)NC(=O)CNC(=O)[C@H](CSC2CC(=O)N(CC3CCC(C(N)=O)CC3)C2=O)NC(=O)CNC1=O (some centres unmarked) [isoDGR#1-P1] (GRGC(X1)GD-OH; lactam N-6) | (1) | (1)^ | (17) | (160) | (8.6) | – | – | – | – | – | – |
| N=C(N)NCCC[C@@H]1NC(=O)CNC(=O)C[C@@H](C(=O)O)NC(=O)CNC(=O)[C@H](CSC2CC(=O)N(CC3CCC(C(=O)O)CC3)C2=O)NC(=O)CNC1=O (some centres unmarked) [isoDGR#1-P2] (GRGC(X2)GD-OH; lactam N-6) | (1) | (1.6) | (80) | (318) | (9.6) | – | – | – | – | – | – |
| N=C(N)NCCC[C@@H]1NC(=O)CNC(=O)C[C@@H](C(=O)O)NC(=O)[C@H](CS)NC(=O)CNC1=O [isoDGR#2, c(CisoDGRG)] (GRGCD-OH; lactam N-5) | (1) | (1) | (1.9) | (2.2) | (0.5) | – | – | – | – | – | – |
| N=C(N)NCCC[C@@H]1NC(=O)CNC(=O)C[C@@H](C(=O)O)NC(=O)[C@H](CSC2CC(=O)N(CC3CCC(C(=O)O)CC3)C2=O)NC(=O)CNC(=O)CNC1=O (stereo partly drawn) [isoDGR#3-P2] (GRGGC(X2)D-OH; lactam N-6) | (1) | – | (26) | (24) | – | 468 | 430 | – | – | – | – |
| N=C(N)NCCC[C@@H]1NC(=O)CNC(=O)C[C@@H](C(=O)O)NC(=O)CNC(=O)[C@H](CS)NC(=O)[C@@H](c2ccccc2)NC1=O [isoDGR#5, c(CGisoDGRphg)] (GR[dPhg]CGD-OH; lactam N-6) | (1) | (1.30) | (3.7) | (42) | (3.26) | – | – | – | – | – | – |
| N=C(N)NCCC[C@@H]1NC(=O)CNC(=O)C[C@@H](C(=O)O)NC(=O)[C@H](CS)NC(=O)[C@@H](c2ccccc2)NC(=O)CNC1=O [isoDGR#7, c(CisoDGRGphg)] (GRG[dPhg]CD-OH; lactam N-6) | (1) | (0.6) | (0.03) | (0.4) | (0.04) | – | – | – | – | – | – |
| *AV(0:1): sulfo-SMCC-activated avidin lacking the peptide [reference compound] | – | – | – | – | – | > 2500 | – | > 2500 | > 2500 | > 2500 | – |
| B1 | – | – | – | – | – | – | – | – | – | – | 18 |
